From the NIST ThermoML archive (doi:10.1016/j.jct.2018.11.011)
Several values for one entry are separate records, joined by “and”; a condition that tells them apart may be missing. Equal values may be shown once.

Test: molar heat capacity at constant pressure
Settings: 101.33 kPa

O=C([O][Sb]([c]1ccccc1)([c]1ccccc1)([c]1ccccc1)[c]1ccccc1)c1ccccc1 [tetraphenylantimony benzoate]
Settings | molar heat capacity at constant pressure
175 K, Crystal, Small (less than 1 g) adiabatic calorimetry | 350 J/K/mol
179.52 K, Crystal, Small (less than 1 g) adiabatic calorimetry | 354.2 J/K/mol
180 K, Crystal, Small (less than 1 g) adiabatic calorimetry | 355.4 J/K/mol
182.77 K, Crystal, Small (less than 1 g) adiabatic calorimetry | 359.3 J/K/mol
187 K, Crystal, Small (less than 1 g) adiabatic calorimetry | 368 J/K/mol
190 K, Crystal, Small (less than 1 g) adiabatic calorimetry | 372 J/K/mol
193.46 K, Crystal, Small (less than 1 g) adiabatic calorimetry | 377.4 J/K/mol
196.73 K, Crystal, Small (less than 1 g) adiabatic calorimetry | 382.6 J/K/mol
200 K, Crystal, Small (less than 1 g) adiabatic calorimetry | 387 J/K/mol and 387.6 J/K/mol
203.22 K, Crystal, Small (less than 1 g) adiabatic calorimetry | 393.1 J/K/mol
206.89 K, Crystal, Small (less than 1 g) adiabatic calorimetry | 398.7 J/K/mol
210 K, Crystal, Small (less than 1 g) adiabatic calorimetry | 402 J/K/mol
212.74 K, Crystal, Small (less than 1 g) adiabatic calorimetry | 408.9 J/K/mol
216.41 K, Crystal, Small (less than 1 g) adiabatic calorimetry | 416 J/K/mol
218 K, Crystal, Small (less than 1 g) adiabatic calorimetry | 417 J/K/mol
220 K, Crystal, Small (less than 1 g) adiabatic calorimetry | 420.9 J/K/mol
221.7 K, Crystal, Small (less than 1 g) adiabatic calorimetry | 424.2 J/K/mol
226.59 K, Crystal, Small (less than 1 g) adiabatic calorimetry | 431.9 J/K/mol
230.26 K, Crystal, Small (less than 1 g) adiabatic calorimetry | 438 J/K/mol
233.93 K, Crystal, Small (less than 1 g) adiabatic calorimetry | 444.7 J/K/mol
237.6 K, Crystal, Small (less than 1 g) adiabatic calorimetry | 451.8 J/K/mol
240 K, Crystal, Small (less than 1 g) adiabatic calorimetry | 455.1 J/K/mol
241.26 K, Crystal, Small (less than 1 g) adiabatic calorimetry | 457.5 J/K/mol
244.92 K, Crystal, Small (less than 1 g) adiabatic calorimetry | 464.4 J/K/mol
248.56 K, Crystal, Small (less than 1 g) adiabatic calorimetry | 469.4 J/K/mol
252.2 K, Crystal, Small (less than 1 g) adiabatic calorimetry | 476.9 J/K/mol
255.84 K, Crystal, Small (less than 1 g) adiabatic calorimetry | 483.2 J/K/mol
259.46 K, Crystal, Small (less than 1 g) adiabatic calorimetry | 489.4 J/K/mol
260 K, Crystal, Small (less than 1 g) adiabatic calorimetry | 491.6 J/K/mol
260.21 K, Crystal, Small (less than 1 g) adiabatic calorimetry | 492.1 J/K/mol
263.38 K, Crystal, Small (less than 1 g) adiabatic calorimetry | 496.3 J/K/mol
266.99 K, Crystal, Small (less than 1 g) adiabatic calorimetry | 503.4 J/K/mol
270.59 K, Crystal, Small (less than 1 g) adiabatic calorimetry | 511.1 J/K/mol
273.15 K, Crystal, Small (less than 1 g) adiabatic calorimetry | 514.4 J/K/mol
274.19 K, Crystal, Small (less than 1 g) adiabatic calorimetry | 516.9 J/K/mol
277.77 K, Crystal, Small (less than 1 g) adiabatic calorimetry | 523.1 J/K/mol
280 K, Crystal, Small (less than 1 g) adiabatic calorimetry | 527.1 J/K/mol
281.34 K, Crystal, Small (less than 1 g) adiabatic calorimetry | 529.8 J/K/mol
284.91 K, Crystal, Small (less than 1 g) adiabatic calorimetry | 536.8 J/K/mol
288.45 K, Crystal, Small (less than 1 g) adiabatic calorimetry | 544.3 J/K/mol
291.98 K, Crystal, Small (less than 1 g) adiabatic calorimetry | 551.8 J/K/mol
295.51 K, Crystal, Small (less than 1 g) adiabatic calorimetry | 558.6 J/K/mol
298.15 K, Crystal, Small (less than 1 g) adiabatic calorimetry | 564.4 J/K/mol
299.02 K, Crystal, Small (less than 1 g) adiabatic calorimetry | 565.4 J/K/mol
300 K, Crystal, Small (less than 1 g) adiabatic calorimetry | 568.4 J/K/mol
302.51 K, Crystal, Small (less than 1 g) adiabatic calorimetry | 572.4 J/K/mol
305.98 K, Crystal, Small (less than 1 g) adiabatic calorimetry | 579.5 J/K/mol
309.1 K, Crystal, Small (less than 1 g) adiabatic calorimetry | 585.3 J/K/mol
312.86 K, Crystal, Small (less than 1 g) adiabatic calorimetry | 594.4 J/K/mol
316.25 K, Crystal, Small (less than 1 g) adiabatic calorimetry | 601.1 J/K/mol
319.65 K, Crystal, Small (less than 1 g) adiabatic calorimetry | 610.9 J/K/mol
320 K, Crystal, Small (less than 1 g) adiabatic calorimetry | 611.4 J/K/mol
321.5 K, Crystal, DSC | 615 J/K/mol
323.03 K, Crystal, Small (less than 1 g) adiabatic calorimetry | 617.6 J/K/mol
324.5 K, Crystal, DSC | 621 J/K/mol
326.38 K, Crystal, Small (less than 1 g) adiabatic calorimetry | 625.6 J/K/mol
327.5 K, Crystal, DSC | 627 J/K/mol
329.73 K, Crystal, Small (less than 1 g) adiabatic calorimetry | 632 J/K/mol
330.5 K, Crystal, DSC | 634 J/K/mol
333.07 K, Crystal, Small (less than 1 g) adiabatic calorimetry | 638.8 J/K/mol
333.5 K, Crystal, DSC | 639 J/K/mol
336.5 K, Crystal, DSC | 645 J/K/mol
337.11 K, Crystal, Small (less than 1 g) adiabatic calorimetry | 646.4 J/K/mol
339.5 K, Crystal, DSC | 649 J/K/mol
340 K, Crystal, Small (less than 1 g) adiabatic calorimetry | 650 J/K/mol
342.5 K, Crystal, DSC | 656 J/K/mol
345.5 K, Crystal, DSC | 660 J/K/mol
348.5 K, Crystal, DSC | 666 J/K/mol
351.5 K, Crystal, DSC | 671 J/K/mol
354.5 K, Crystal, DSC | 678 J/K/mol
357.5 K, Crystal, DSC | 683 J/K/mol
360 K, Crystal, Small (less than 1 g) adiabatic calorimetry | 688 J/K/mol
360.5 K, Crystal, DSC | 689 J/K/mol
368.5 K, Crystal, DSC | 709 J/K/mol
377.2 K, Crystal, DSC | 731 J/K/mol
380 K, Crystal, Small (less than 1 g) adiabatic calorimetry | 736 J/K/mol
387.3 K, Crystal, DSC | 755 J/K/mol
397.5 K, Crystal, DSC | 780 J/K/mol
400 K, Crystal, Small (less than 1 g) adiabatic calorimetry | 788 J/K/mol
402.5 K, Crystal, DSC | 793 J/K/mol
405.5 K, Crystal, DSC | 800 J/K/mol
408.5 K, Crystal, DSC | 806 J/K/mol
411.5 K, Crystal, DSC | 830 J/K/mol
420 K, Crystal, Small (less than 1 g) adiabatic calorimetry | 800 J/K/mol
437.5 K, Crystal, Small (less than 1 g) adiabatic calorimetry | 873 J/K/mol
437.5 K, Liquid, DSC | 973 J/K/mol
440 K, Liquid, DSC | 973 J/K/mol
445.5 K, Liquid, DSC | 989 J/K/mol
447.5 K, Liquid, DSC | 981 J/K/mol
450.5 K, Liquid, DSC | 973 J/K/mol
453.5 K, Liquid, DSC | 973 J/K/mol
456.5 K, Liquid, DSC | 973 J/K/mol
459.5 K, Liquid, DSC | 973 J/K/mol
460 K, Liquid, DSC | 973 J/K/mol
462.5 K, Liquid, DSC | 973 J/K/mol
465.5 K, Liquid, DSC | 973 J/K/mol
468.5 K, Liquid, DSC | 973 J/K/mol
471.5 K, Liquid, DSC | 973 J/K/mol
474.5 K, Liquid, DSC | 973 J/K/mol
477.5 K, Liquid, DSC | 973 J/K/mol
480 K, Liquid, DSC | 973 J/K/mol
480.5 K, Liquid, DSC | 973 J/K/mol
